Drawing on patent US7442791B2, “Aminoalkylamide substituted cyclohexyl derivatives” (Hoffmann-La Roche Inc., priority 2003, dated 2008), this text covers inhibition and melting point for five compounds.

The structures appear in SMILES notation. Like-named read-outs stand apart in the source and are kept apart here.

Series [1] concerns the target T1, Human Liver Microsomal 2,3-oxidosqualene-lanosterol Cyclase (OSC) (Homo sapiens, UniProt P48449).
T1 construct: Liver microsomes from a healthy volunteer were prepared in sodium phosphate buffer (pH 7.4); from tissue; host or cells: human liver microsomes (healthy volunteer)
T1 sequence (P48449 1-732): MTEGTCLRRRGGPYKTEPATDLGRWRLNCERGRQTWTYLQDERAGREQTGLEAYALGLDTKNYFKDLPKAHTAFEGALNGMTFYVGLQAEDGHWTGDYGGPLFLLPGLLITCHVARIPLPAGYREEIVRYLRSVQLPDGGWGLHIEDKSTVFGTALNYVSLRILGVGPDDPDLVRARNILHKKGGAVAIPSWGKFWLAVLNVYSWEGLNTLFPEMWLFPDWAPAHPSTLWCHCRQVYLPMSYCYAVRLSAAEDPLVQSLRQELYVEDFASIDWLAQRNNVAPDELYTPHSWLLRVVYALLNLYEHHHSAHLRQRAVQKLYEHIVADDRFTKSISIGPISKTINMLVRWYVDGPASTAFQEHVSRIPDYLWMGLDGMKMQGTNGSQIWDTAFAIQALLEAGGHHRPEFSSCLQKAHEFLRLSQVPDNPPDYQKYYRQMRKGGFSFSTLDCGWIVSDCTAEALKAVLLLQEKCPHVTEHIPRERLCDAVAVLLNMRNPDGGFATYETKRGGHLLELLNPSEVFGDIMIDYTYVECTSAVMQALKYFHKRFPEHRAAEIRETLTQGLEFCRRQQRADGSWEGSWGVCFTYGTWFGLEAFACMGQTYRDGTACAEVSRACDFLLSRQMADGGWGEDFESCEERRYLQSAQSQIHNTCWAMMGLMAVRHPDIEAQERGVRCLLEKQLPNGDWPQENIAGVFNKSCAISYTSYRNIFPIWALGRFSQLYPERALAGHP
In words: Inhibition of human liver microsomal 2,3-oxidosqualene-lanosterol cyclase (OSC). The series is classed as biochemical. The note with it: read-out: percentage OSC inhibition against controls. The procedure: Inhibition of Human Liver Microsomal 2,3-oxidosqualene-lanosterol Cyclase (OSC)
Liver microsomes from a healthy volunteer were prepared in sodium phosphate buffer (pH 7.4). The OSC activity was measured in the same buffer, which also contained 1 mM EDTA and 1 mM dithiothreitol. The microsomes were diluted to 0.8 mg/ml protein in cold phosphate buffer. Dry [^14C]R,S-monooxidosqualene (MOS, 12.8 mCi/mmol) was diluted to 20 nCi/μl with ethanol and mixed with phosphate buffer-1% BSA (bovine serum albumin). A stock solution of 1 mM test substance in DMSO was diluted to the desired concentration with phosphate buffer-1% BSA. 40 μl of microsomes were mixed with 20 μl of the solution of the test substance and the reaction was subsequently started with 20 μl of the [^14C]R,S-MOS solution. The final conditions were 0.4 mg/ml of microsomal proteins and […] of [^14C]R,S-MOS in phosphate buffer, pH 7.4, containing 0.5% albumin, DMSO<0.1% and ethanol<2%, in a total volume of 80 μl.
After 1 hour at 37° C. the reaction was stopped by the addition of 0.6 ml of 10% KOH-methanol, 0.7ml of water and 0.1 ml of hexane:ether (1:1, v/v) which contained 25 μg of non-radioactive MOS and 25 μg of lanosterol as carriers. After shaking, 1 ml of hexane:ether (1:1, v/v) was added to each test tube, these were again shaken and then centrifuged. The upper phase was transferred into a glass test tube, the lower phase was again extracted with hexane:ether and combined with the first extract. The entire extract was evaporated to dryness with nitrogen, the residue was suspended in 50 μl of hexane:ether and applied to a silica gel plate. Chromatographic separation was effected in hexane:ether (1:1, v/v) as the eluent. The Rf values for the MOS substrate and the lanosterol product were 0.91 and, respectively, 0.54. After drying, radioactive MOS and lanosterol were observed on the silica gel plate. The ratio of MOS to lanosterol was determined from the radioactive bands in order to determine the yield of the reaction and OSC inhibition.
The test was carried out on the one hand with a constant test substance concentration of 100 nM and the percentage OSC inhibition against controls was calculated.
In addition, the test was carried out with different test substance concentrations and subsequently the IC50 value was calculated, i.e. the concentration required to reduce the conversion of MOS into lanosterol to 50% of the control value.
A general note: Liver microsomes are a subcellular fraction often used to study metabolism.

Where [2] appears, read: constant test substance concentration of 100 nM, human liver microsomes, [14C]R,S-MOS, 1 hour at 37° C.

By inhibition is commonly meant the percentage by which the read-out fell short of the control. For `CN(C)CCN(C)C(=O)CC[C@H]1CC[C@H](CN(C)S(=O)(=O)c2ccc(C(F)(F)F)cc2)CC1` [Example 22.6, trans-N-(2-dimethylamino-ethyl)-N-methyl-3-(4-{[methyl-(4-trifluoromethyl-benzenesulfonyl)-amino]-methyl}-cyclohexyl)-propionamide], the inhibition at 0.1 µM in series [1] (setting [2]) came to 56%.

For `CN(C)CCN(C)C(=O)CCO[C@H]1CC[C@H](N(C)S(=O)(=O)c2ccc(C(F)(F)F)cc2)CC1` [Example 1.6, trans-N-(2-dimethylamino-ethyl)-N-methyl-3-{4-[methyl-(4-trifluoromethyl-benzenesulfonyl)-amino]-cyclohexyloxy}-propionamide], the inhibition at 0.1 µM in series [1] (setting [2]) is 61%.

With `CN(C)CCN(C)C(=O)[C@H]1CC[C@H](CN(C)C(=O)Oc2ccc(Cl)cc2)CC1` [Example 5.4, trans-{4-[(2-dimethylamino-ethyl)-methyl-carbamoyl]-cyclohexylmethyl}-methyl-carbamic acid 4-chloro-phenyl ester], in series [1], the inhibition at 0.1 µM worked out at 51%.

As usually defined, the melting point is the temperature, or range, at which the solid turns liquid. Regarding `CN(C)CCN(C)C(=O)[C@H]1CC[C@H](N(C)S(=O)(=O)c2ccc(C(F)(F)F)cc2)CC1` [Example 4.4, trans-4-[methyl-(4-trifluoromethyl-benzenesulfonyl)-amino]-cyclohexanecarboxylic acid (2-dimethylamino-ethyl)-methyl-amide], the melting point stood at 83 °C.

For `CCN(CCO)CCN(C)C(=O)[C@H]1CC[C@H](CCN(C)c2ncc(Br)cn2)CC1` [Example 15.4, trans-4-{2-[(5-bromo-pyrimidin-2-yl)-methyl-amino]-ethyl}-cyclohexanecarboxylic acid {2-[ethyl-(2-hydroxy-ethyl)-amino]-ethyl}-methyl-amide], the inhibition at 0.1 µM in series [1] (setting [2]) worked out at 65%.
